Consider 5 substances from patent US20120083522A1, “MODULATION OF INFLAMMATORY RESPONSES BY FACTOR XI” (Isis Pharmaceuitcals, inc., priority 2009, published 2012).

The test system of one data set is human Factor XI mRNA. Kind of data set: Dose-dependent inhibition and IC50 in HepG2 cells, microwalk gapmers, electroporation (Example 16). The format is cell-based. How it is done: These gapmers were tested at various doses in HepG2 cells. Cells were plated at a density of 20,000 cells per well and transfected using electroporation with 375 nM, 750 nM, 1,500 nM, 3,000 nM, 6,000 nM and 12,000 nM concentrations of antisense oligonucleotide, as specified in Table 54. After a treatment period of approximately 16 hours, RNA was isolated from the cells and Factor XI mRNA levels were measured by quantitative real-time PCR. Human Factor XI primer probe set RTS 2966 was used to measure mRNA levels. Factor XI mRNA levels were adjusted according to total RNA content, as measured by RIBOGREEN. Results are presented as percent inhibition of Factor XI, relative to untreated control cells.
ISIS 416850, ISIS 416858, ISIS 445522, and ISIS 445531 (see Table 52 above) were re-tested in vitro along with the microwalk gapmers under the same conditions described above.
The chimeric antisense oligonucleotides in Table 53 were designed as 3-8-3 MOE, 4-8-4 MOE, 2-10-2 MOE, 3-10-3 MOE, or 4-10-4 MOE gapmers. The 3-8-3 gapmer is 14 nucleotides in length, wherein the central gap segment is comprised of eight 2′-deoxynucleotides and is flanked on both sides (in the 5′ and 3′ directions) by wings comprising three nucleotides each. The 4-8-4 gapmer is 16 nucleotides in length, wherein the central gap segment is comprised of eight 2′-deoxynucleotides and is flanked on both sides (in the 5′ and 3′ directions) by wings comprising four nucleotides each. The 2-10-2 gapmer is 14 nucleotides in length, wherein the central gap segment is comprised of ten 2′-deoxynucleotides and is flanked on both sides (in the 5′ and 3′ directions) by wings comprising two nucleotides each. The 3-10-3 gapmer is 16 nucleotides in length, wherein the central gap segment is comprised of ten 2′-deoxynucleotides and is flanked on both sides (in the 5′ and 3′ directions) by wings comprising three nucleotides each. The 4-10-4 gapmer is 18 nucleotides in length, wherein the central gap segment is comprised of ten 2′-deoxynucleotides and is flanked on both sides (in the 5′ and 3′ directions) by wings comprising four nucleotides each. For each of the motifs (3-8-3, 4-8-4, 2-10-2, 3-10-3, and 4-10-4), each nucleotide in the 5′ wing segment and each nucleotide in the 3′ wing segment has a 2′-MOE modification. The internucleoside linkages throughout each gapmer are phosphorothioate (P═S) linkages. All cytidine residues throughout each gapmer are 5-methylcytidines. “Human Target start site” indicates the 5′-most nucleotide to which the gapmer is targeted in the human sequence. “Human Target stop site” indicates the 3′-most nucleotide to which the gapmer is targeted in the human sequence. Each gapmer listed in Table 53 is targeted to SEQ ID NO: 1 (GENBANK Accession No. NM_000128.3). Each gapmer is Table 53 is also fully cross-reactive with the rhesus monkey Factor XI gene sequence, designated herein as SEQ ID NO: 274 (exons 1-15 GENBANK Accession No. NW—001118167.1). ‘Rhesus monkey start site’ indicates the 5′-most nucleotide to which the gapmer is targeted in the rhesus monkey sequence. ‘Rhesus monkey stop site’ indicates the 3′-most nucleotide to which the gapmer is targeted to the rhesus monkey sequence.
The first two listed gapmers in Table 54 are the original gapmers (ISIS 416850 and ISIS 416858) from which the remaining gapmers were designed via microwalk and are designated by an asterisk.

A further data set concerns Factor XI mRNA. Nature of the data set: Cynomolgus monkeys, 25 mg/kg: liver Factor XI RNA analysis (Example 30). The format is in vivo. The following applies: for Factor XI mRNA in liver (in words): cynomolgus monkeys, day 55, in comparison to the PBS control. As for the experimental part:
(§1) Groups, each consisting of two male and two female monkeys, were injected subcutaneously with 25 mg/kg of ISIS 416850, ISIS 449709, ISIS 445522, ISIS 449710, ISIS 449707, ISIS 449711, ISIS 449708, 416858 and ISIS 445531. Antisense oligonucleotide was administered to the monkeys at 25 mg/kg three times per week for week 1 and 25 mg/kg twice per week for weeks 2 to 8. A control group, consisting of two male and two female monkeys was injected subcutaneously with PBS according to the same dosing regimen. Body weights were taken 14 days and 7 days before the start of treatment and were then measured weekly throughout the treatment period. Blood samples were collected 14 days and 5 days before the start of treatment and subsequently several times during the dosing regimen for measurement of various hematologic factors. On day 55, the monkeys were euthanized by exsanguination while under deep anesthesia, and organs harvested for further analysis.
On day 55, RNA was extracted from liver tissue for real-time PCR analysis of Factor XI using primer probe set LTS00301. Results are presented as percent inhibition of Factor XI, relative to PBS control.

The next data set concerns Factor XI protein. Kind of data set: Cynomolgus monkeys: plasma Factor XI protein ELISA (Example 30). Conditions: for Inhibition of Factor XI protein relative to the PBS control: 25 mg/kg s.c., plasma ELISA. It counts as in vivo. As for the experimental part:
as §1
Plasma samples from all monkey groups taken on different days were analyzed by a sandwich-style ELISA assay (Affinity Biologicals Inc.) using an affinity-purified polyclonal anti-Factor XI antibody as the capture antibody and a peroxidase-conjugated polyclonal anti-Factor XI antibody as the detecting antibody. Monkey plasma was diluted 1:50 for the assay. Peroxidase activity was expressed by incubation with the substrate o-phenylenediamine. The color produced was quantified using a microplate reader at 490 nm and was considered to be proportional to the concentration of Factor XI in the samples.
The results are presented in Table 148, expressed as percentage reduction relative to that of the PBS control.

Data set [1] concerns IL-1β, IL-6, IFN-γ, TNF-α, IL-8, MIP-1α, MCP-1, MIP-10, RANTES. Kind of data set: Cynomolgus monkeys: cytokine and chemokine assays (Example 30). The format is in vivo. How it is done:
as §1
Blood samples obtained from all monkey groups were sent to Pierce Biotechnology (Woburn, Mass.) for measurements of chemokine and cytokine levels. Levels of IL-1β, IL-6, IFN-γ, and TNF-α were measured using the respective primate antibodies and levels of IL-8, MIP-1α, MCP-1, MIP-10 and RANTES were measured using the respective cross-reacting human antibodies. Measurements were taken 14 days before the start of treatment and on day 55, when the monkeys were euthanized.

The mark [2] stands for this setting: day −14 (before start of treatment).

In the oligonucleotide strings, read from the 5' end, every base follows the letter of its sugar. An asterisk marks phosphorothioate; unmarked linkages are phosphodiester. Other units and linkages are bracketed, terminal groups are in braces. A string of capitals states the bases alone. e = 2'-O-(2-methoxyethyl) (MOE); [5mC] = 5-methylcytosine; d = 2'-deoxy (DNA)

With “449711 (antisense eA*e[5mC]*dA*dG*dT*dT*dT*d[5mC]*dT*dG*dG*d[5mC]*eA*eG) [compound 449711]”, the “percent inhibition of Factor XI mRNA” value was 6% with human Factor XI mRNA (electroporation, 375 nM); 14% in the data set on human Factor XI mRNA (electroporation, 750 nM); 1% in the data set with human Factor XI mRNA (electroporation, 1,500 nM); 7% with human Factor XI mRNA (electroporation, 3,000 nM); 32% in the data set with human Factor XI mRNA (electroporation, 6,000 nM); 52% in the data set on human Factor XI mRNA (electroporation, 12,000 nM). In addition, the “% inhibition of Factor XI mRNA in liver relative to the PBS control” value in the data set on Factor XI mRNA (25 mg/kg s.c., day 55, liver) is recorded as 0%. In addition, the “Inhibition of Factor XI protein relative to the PBS control” value in the data set with Factor XI protein (Day 10) came out at 5%; with Factor XI protein (Day 17), 3%; in the data set with Factor XI protein (Day 24), 6%; with Factor XI protein (Day 31) it was 9%; in the data set on Factor XI protein (Day 38), 2%; in the data set on Factor XI protein (Day 45), 4%. Besides, the “Inhibition of Factor XI protein relative to the PBS control” value in the data set with Factor XI protein (Day 52) was 3%; with Factor XI protein (Day 55), 5%; in the data set with Factor XI protein (Day −5), 1%; with Factor XI protein (Day −14), 0%.
Take “ISIS 449707: microwalk gapmer of Table 53 (antisense e[5mC]*eA*e[5mC]*eA*dG*dT*dT*dT*d[5mC]*dT*dG*dG*e[5mC]*eA*eG*eG)”: the “Factor XI mRNA in liver (in words)” value in the data set on Factor XI mRNA is reported as “significant reduction of Factor XI mRNA”. In data set [1] (25 mg/kg s.c., day 55), this substance came in with an IL-1β level of 97 pg/mL and an MIP-1β level of 49 pg/mL. In data set [1] (setting [2]), this substance gave an IL-1β level of 115 pg/mL and an MIP-1β level of 13 pg/mL.
The corresponding values for “ISIS 449708: microwalk gapmer of Table 53 (antisense eA*e[5mC]*eA*dG*dT*dT*dT*d[5mC]*dT*dG*dG*e[5mC]*eA*eG)” are “significant reduction of Factor XI mRNA”, 131 pg/mL, 128 pg/mL, 35 pg/mL and 19 pg/mL.
Take “ISIS 449709: microwalk gapmer of Table 53 (antisense eG*e[5mC]*eA*e[5mC]*dA*dG*dT*dT*dT*d[5mC]*dT*dG*dG*d[5mC]*eA*eG*eG*e[5mC])”: the “Factor XI mRNA in liver (in words)” value in the data set with Factor XI mRNA is reported as “significant reduction of Factor XI mRNA”. In the data set on Factor XI protein (cynomolgus monkeys, Example 30), the “Factor XI protein levels (in words)” value is reported as “time-dependent decrease in protein levels”. Also, the IL-1β level in data set [1] (25 mg/kg s.c., day 55) is 181 pg/mL; in data set [1] (setting [2]), 137 pg/mL. In addition, the MIP-1β level in data set [1] (25 mg/kg s.c., day 55) stood at 47 pg/mL; in data set [1] (setting [2]), 14 pg/mL.
“ISIS 449710: microwalk gapmer of Table 53 (antisense e[5mC]*eA*e[5mC]*dA*dG*dT*dT*dT*d[5mC]*dT*dG*dG*d[5mC]*eA*eG*eG)”: the “Factor XI mRNA in liver (in words)” value in the data set on Factor XI mRNA is “significant reduction of Factor XI mRNA”. For the same substance, the IL-1β level is given as 286 pg/mL in data set [1] (25 mg/kg s.c., day 55) and 271 pg/mL in data set [1] (setting [2]). Moreover, the MIP-1β level in data set [1] (25 mg/kg s.c., day 55) came out at 53 pg/mL; in data set [1] (setting [2]) it was 18 pg/mL.
